In US5541183A, “Ginkgolide derivatives” (priority 1993, dated 1996) one finds IC50 data, which are given here for 41 molecules.

One may read the IC50 as the midpoint of a concentration-inhibition curve.

Where two headings read alike, the source gives them in different places.

The test relates to PAF-induced rabbit platelet aggregation. Briefly: PAF-induced rabbit platelet aggregation. The class given is cell-based, rabbit (New Zealand white). Particulars: Oryctolagus cuniculus, read-out: IC50, inhibition of PAF-induced rabbit platelet aggregation. Here is the method:
Pharmacology Example 1: PAF-induced rabbit platelet aggregation
Blood was collected from the ear artery of a male New Zealand white rabbit and mixed with 3.8% sodium citrate in a 9:1 volume ratio. Platelet rich plasma (PRP) was obtained by centrifugation of the blood at 150 g for 10 min at room temperature. The number of platelets was adjusted to 3×10^8 platelets/ml with platelet poor plasma. Platelet aggregation was monitored by continuous recording of light transmission in a dual-channel aggregometer (Chrono-Log 560-VS) coupled with a two channel recorder (Chrono-Log 707). Stirred PRP was treated with various concentrations of the test compounds or vehicle (0.5% DMSO) for 2 min and then PAF(5×10^-9 M) was added to induce platelet aggregation.
Inhibition values were calculated by comparing the extent of aggregation obtained in the presence of the vehicle alone (0.5% DMSO) and in the presence of a test compound. Log concentration-response curves were generated and the IC50 values were determined by regression analysis.
Table 1 lists results from this assay for inhibition of PAF-induced rabbit platelet aggregation for illustrative examples of the compounds of this invention.

Consider `CC1C(=O)OC2C(O)C34C5CC(C(C)(C)C)C36C(OC(=O)C6OCCI)OC4(C(=O)O5)C12O` (centres unmarked) [Example 117, 10-(2'-iodoethoxy)-Ginkgolide B], for which the IC50 was determined as 53.4 nM.

For `CC1C(=O)OC2C(O)C34C5CC(C(C)(C)C)C36C(OC(=O)C6OCc3cccc(F)c3)OC4(C(=O)O5)C12O` (centres unmarked) [Example 84, 10-(3'-fluorobenzyloxy)-Ginkgolide B], the IC50 (rabbit PRP, PAF 5×10^-9 M) worked out at 68 nM.

With `Cc1ccccc1COC1C(=O)OC2OC34C(=O)OC5CC(C(C)(C)C)C21C53C(OCc1ccccc1C)C1OC(=O)C(C)C14O` (centres unmarked) [Example 42, 1,10-bis(2'-methylbenzyloxy)-Ginkgolide B], the IC50 (rabbit PRP, PAF 5×10^-9 M) was determined as 44.3 nM.

With `CC1C(=O)OC2C(O)C34C5CC(C(C)(C)C)C36C(OC(=O)C6OCCN3CCNCC3)OC4(C(=O)O5)C12O` (centres unmarked) [Example 121, 10-(2'-(1"-piperazinyl)-ethoxy)-Ginkgolide B], the IC50 (rabbit PRP, PAF 5×10^-9 M) was 57.1 nM.

As to `Cc1cnc(COC2C(=O)OC3OC45C(=O)OC6CC(C(C)(C)C)C32C64C(O)C2OC(=O)C(C)C25O)c(C)c1NO` (centres unmarked) [Example 104, 10-(3,5-dimethyl-4-hydroxyamino-2-pyridinyl)-methoxy-Ginkgolide B], the IC50 (rabbit PRP, PAF 5×10^-9 M) is 110 nM.

`Cc1cc(COC2C(=O)OC3OC45C(=O)OC6CC(C(C)(C)C)C32C64C(O)C2OC(=O)C(C)C25O)cc(N)c1O` (centres unmarked) [Example 35]: the IC50 (rabbit PRP, PAF 5×10^-9 M) is 101 nM.

`CC1C(=O)OC2C(O)C34C5CC(C(C)(C)C)C36C(OC(=O)C6OCc3cc(NO)ccn3)OC4(C(=O)O5)C12O` (centres unmarked) [Example 113, 10-(2-(4-hydroxyaminopyridinyl)-methoxy)-Ginkgolide B]: where the note is “rabbit PRP, PAF 5×10^-9 M”, the concentration for half-maximal inhibition (IC50) came out at 111 nM.

With `CCCCc1ccc(COC2C(=O)OC3OC45C(=O)OC6CC(C(C)(C)C)C32C64C(O)C2OC(=O)C(C)C25O)nc1` (centres unmarked) [Example 100, 10-(5-butyl-2-pyridinyl)-methoxy-Ginkgolide B], under “rabbit PRP, PAF 5×10^-9 M”, the IC50 was 52.1 nM.

Consider `COc1cc(C(=O)OC2C(=O)OC3OC45C(=O)OC6CC(C(C)(C)C)C32C64C(O)C2OC(=O)C(C)C25O)cc(OC)c1OC` (centres unmarked) [Example 80, 10-(3',4'.5'-trimethoxybenzoyloxy)-Ginkgolide B], for which the IC50 (rabbit PRP, PAF 5×10^-9 M) worked out at 114 nM.

On to `Cc1cnc(COC2C(=O)OC3OC45C(=O)OC6CC(C(C)(C)C)C32C64C(O)C2OC(=O)C(C)C25O)c(C)c1NC(=O)c1ccccc1` (centres unmarked) [Example 105, 10-(4-benzoylamino-3,5-dimethyl-2-pyridinyl)-methoxy-Ginkgolide B], for which the IC50 (rabbit PRP, PAF 5×10^-9 M) is 32.5 nM.

Turning to `CCOc1ccnc(COC2C(=O)OC3OC45C(=O)OC6CC(C(C)(C)C)C32C64C(O)C2OC(=O)C(C)C25O)c1` (centres unmarked) [Example 110], where the note is “rabbit PRP, PAF 5×10^-9 M”, the half-maximal inhibitory concentration (IC50) was determined as 157 nM.

With `CC1C(=O)OC2C(O)C34C5CC(C(C)(C)C)C36C(OC(=O)C6OCCN3CCCCC3)OC4(C(=O)O5)C12O` (centres unmarked) [Example 118, 10-(2'-(1"-piperidinyl)-ethoxy)-Ginkgolide B], the 50% inhibitory concentration (IC50) (rabbit PRP, PAF 5×10^-9 M) worked out at 47.1 nM.

As to `CC1C(=O)OC2C(O)C34C5CC(C(C)(C)C)C36C(OC(=O)C6OCc3ccc([N+](=O)[O-])cc3)OC4(C(=O)O5)C12O` (centres unmarked) [Example 44], the IC50 stood at 83.1 nM.

As to `CC1C(=O)OC2C(O)C34C5CC(C(C)(C)C)C36C(OC(=O)C6OCCc3ccccn3)OC4(C(=O)O5)C12O` (centres unmarked) [Example 101, 10-(2-pyridinyl)-ethoxy-Ginkgolide B], the IC50 worked out at 102 nM.

Turning to `CC1C(=O)OC2C(O)C34C5CC(C(C)(C)C)C36C(OC(=O)C6OCc3cccnc3)OC4(C(=O)O5)C12O` (centres unmarked) [Example 108, 10-(3-pyridinyl)-methoxy-Ginkgolide B], the half-maximal inhibitory concentration (IC50) (rabbit PRP, PAF 5×10^-9 M) was 134 nM.

Consider `CC1C(=O)OC2C(O)C34C5CC(C(C)(C)C)C36C(OC(=O)C6OCc3ccc(Cl)cc3)OC4(C(=O)O5)C12O` (centres unmarked) [Example 3, 10-(4'-chlorobenzyloxy)-Ginkgolide B], for which the IC50 (rabbit PRP, PAF 5×10^-9 M) turned out to be 94.7 nM.

`CC1C(=O)OC2C(O)C34C5CC(C(C)(C)C)C36C(OC(=O)C6OCc3ccc(C(F)(F)F)cc3)OC4(C(=O)O5)C12O` (centres unmarked) [Example 94, 10-(4'-trifluoromethylbenzyloxy)-Ginkgolide B]: under “rabbit PRP, PAF 5×10^-9 M”, the IC50 stood at 121 nM.

For the molecule `CC1C(=O)OC2C(O)C34C5CC(C(C)(C)C)C36C(OC(=O)C6OCc3ccccc3F)OC4(C(=O)O5)C12O` (centres unmarked) [Example 87, 10-(2'-fluorobenzyloxy)-Ginkgolide B], the IC50 worked out at 107 nM.

As to `CC1C(=O)OC2C(OCc3ccc(Cl)cc3Cl)C34C5CC(C(C)(C)C)C36C(OC(=O)C6OCc3ccc(Cl)cc3Cl)OC4(C(=O)O5)C12O` (centres unmarked) [Example 92, 1,10-bis(2',4'-dichlorobenzyloxy)-Ginkgolide B], the IC50 (rabbit PRP, PAF 5×10^-9 M) amounted to 102 nM.

Regarding `Cc1cnc(COC2C(=O)OC3OC45C(=O)OC6CC(C(C)(C)C)C32C64C(O)C2OC(=O)C(C)C25O)c(C)c1[N+](=O)[O-]` (centres unmarked) [Example 98, 10-(3,5-dimethyl-4-nitro-2-pyridinyl)-methoxy-Ginkgolide B], the IC50 (rabbit PRP, PAF 5×10^-9 M) is 131 nM.

Take `CC1C(=O)OC2C(O)C34C5CC(C(C)(C)C)C36C(OC(=O)C6OCc3cccc(C(F)(F)F)c3)OC4(C(=O)O5)C12O` (centres unmarked) [Example 93, 10-(3'-trifiuoromethylbenzyloxy)-Ginkgolide B]: the concentration for half-maximal inhibition (IC50) (rabbit PRP, PAF 5×10^-9 M) was determined as 73.1 nM.

Turning to `CC1C(=O)OC2C(O)C34C5CC(C(C)(C)C)C36C(OC(=O)C6OCc3ccc(-c6ccccc6)cc3)OC4(C(=O)O5)C12O` (centres unmarked) [Example 81, 10-(4'-phenylbenzyloxy)-Ginkgolide B], under “rabbit PRP, PAF 5×10^-9 M”, the half-maximal inhibitory concentration (IC50) came out at 52.1 nM.

Consider `CC1C(=O)OC2C(O)C34C5CC(C(C)(C)C)C36C(OC(=O)C6OCc3ccc(N)cc3)OC4(C(=O)O5)C12O` (centres unmarked) [Example 75], for which the IC50 is 116 nM.

As for `Cc1ccc(COC2C(=O)OC3OC45C(=O)OC6CC(C(C)(C)C)C32C64C(O)C2OC(=O)C(C)C25O)cc1` (centres unmarked) [Example 43, 10-(4'-methylbenzyloxy)-Ginkgolide B], where the note is “rabbit PRP, PAF 5×10^-9 M”, the IC50 was determined as 46.7 nM.

Consider `Cc1ccccc1COC1C(=O)OC2OC34C(=O)OC5CC(C(C)(C)C)C21C53C(O)C1OC(=O)C(C)C14O` (centres unmarked) [Example 41, 10-(2'-methylbenzyloxy)-Ginkgolide B], for which the IC50 (rabbit PRP, PAF 5×10^-9 M) turned out to be 74.1 nM.

Take `CC1C(=O)OC2C(O)C34C5CC(C(C)(C)C)C36C(OC(=O)C6OCCCOc3ccccc3)OC4(C(=O)O5)C12O` (centres unmarked) [Example 78, 10-(3'-phenoxypropoxy)-Ginkgolide B]: the IC50 (rabbit PRP, PAF 5×10^-9 M) stood at 159 nM.

`CC1C(=O)OC2C(O)C34C5CC(C(C)(C)C)C36C(OC(=O)C6OCc3ccc6ccccc6n3)OC4(C(=O)O5)C12O` (centres unmarked) [Example 102, 10-(2-quinolinyl)-methoxy-Ginkgolide B]: for the setting “rabbit PRP, PAF 5×10^-9 M”, the IC50 is 131 nM.

Consider `Cc1cnc(COC2C(=O)OC3OC45C(=O)OC6CC(C(C)(C)C)C32C64C(O)C2OC(=O)C(C)C25O)c(C)c1N(O)C(=O)c1ccccc1` (centres unmarked) [Example 106, 10-(4-N-benzoyl-N-hydroxyamino-3,5-dimethyl-2-pyridinyl)-methoxy Ginkgolide B], for which, for the setting “rabbit PRP, PAF 5×10^-9 M”, the IC50 came out at 47.1 nM.

Regarding `CC1C(=O)OC2C(O)C34C5CC(C(C)(C)C)C36C(OC(=O)C6OCc3ccc(O)c(O)c3)OC4(C(=O)O5)C12O` (centres unmarked) [Example 30], the IC50 turned out to be 121 nM.

For the molecule `CC1C(=O)OC2C(O)C34C5CC(C(C)(C)C)C36C(OC(=O)C6OC(=O)c3ccccc3)OC4(C(=O)O5)C12O` (centres unmarked) [Example 88, 10-benzoyloxy-Ginkgolide B], the IC50 was found to be 48.2 nM.

Regarding `CC1C(=O)OC2C(O)C34C5CC(C(C)(C)C)C36C(OC(=O)C6OCCN3CCOCC3)OC4(C(=O)O5)C12O` (centres unmarked) [Example 119, 10-(2'-(1"-morpholinyl)-ethoxy)-Ginkgolide B], the IC50 (rabbit PRP, PAF 5×10^-9 M) was 54.1 nM.

As to `CC1C(=O)OC2C(O)C34C5CC(C(C)(C)C)C36C(OC(=O)C6OCc3ccc(Cl)cc3Cl)OC4(C(=O)O5)C12O` (centres unmarked) [Example 2, 10-(2',4'-dichlorobenzyloxy)-Ginkgolide B], the IC50 (rabbit PRP, PAF 5×10^-9 M) was determined as 72.1 nM.

On to `CC1C(=O)OC2C(OCc3ccc(C(F)(F)F)cc3)C34C5CC(C(C)(C)C)C36C(OC(=O)C6OCc3ccc(C(F)(F)F)cc3)OC4(C(=O)O5)C12O` (centres unmarked) [Example 95], for which the IC50 (rabbit PRP, PAF 5×10^-9 M) stood at 87.1 nM.

In the case of `CC1C(=O)OC2C(O)C34C5CC(C(C)(C)C)C36C(OC(=O)C6OS(=O)(=O)c3ccccc3)OC4(C(=O)O5)C12O` (centres unmarked) [Example 90, 10-benzenesulfonyloxy-Ginkgolide B], the IC50 (rabbit PRP, PAF 5×10^-9 M) is 82.1 nM.

For `COc1cc(COC2C(=O)OC3OC45C(=O)OC6CC(C(C)(C)C)C32C64C(O)C2OC(=O)C(C)C25O)ccc1O` (centres unmarked) [Example 28], where the note is “rabbit PRP, PAF 5×10^-9 M”, the IC50 was determined as 37.1 nM.

As for `CC1C(=O)OC2C(O)C34C5CC(C(C)(C)C)C36C(OC(=O)C6OCCc3ccccc3)OC4(C(=O)O5)C12O` (centres unmarked) [Example 79, 10-(2'-phenylethoxy)-Ginkgolide B], for the setting “rabbit PRP, PAF 5×10^-9 M”, the IC50 is 117 nM.

Take `CC1C(=O)OC2C(O)C34C5CC(C(C)(C)C)C36C(OC(=O)C6OCCN3CCCC3)OC4(C(=O)O5)C12O` (centres unmarked) [Example 122, 10-(2'-(1"-pyrrolidinyl)-ethoxy)-Ginkgolide B]: under “rabbit PRP, PAF 5×10^-9 M”, the IC50 stood at 56.1 nM.

On to `Cc1cc(COC2C(=O)OC3OC45C(=O)OC6CC(C(C)(C)C)C32C64C(O)C2OC(=O)C(C)C25O)cc(C)c1O` (centres unmarked) [Example 27], for which the IC50 (rabbit PRP, PAF 5×10^-9 M) stood at 62.1 nM.

As to `CC1C(=O)OC2C(O)C34C5CC(C(C)(C)C)C36C(OC(=O)C6OCCn3cncn3)OC4(C(=O)O5)C12O` (centres unmarked) [Example 120, 10-(2'-(1"-(1",2",4"-triazolyl)-ethoxy))-Ginkgolide B], where the note is “rabbit PRP, PAF 5×10^-9 M”, the IC50 was found to be 62.1 nM.

For the molecule `COc1cccc(COC2C(=O)OC3OC45C(=O)OC6CC(C(C)(C)C)C32C64C(O)C2OC(=O)C(C)C25O)c1` (centres unmarked) [Example 91, 10-(3'-methoxybenzyloxy)-Ginkgolide B], the IC50 (rabbit PRP, PAF 5×10^-9 M) was 93.1 nM.

Regarding `COc1cc(COC2C(=O)OC3OC45C(=O)OC6CC(C(C)(C)C)C32C64C(O)C2OC(=O)C(C)C25O)cc(OC)c1OC` (centres unmarked) [Example 15, 10-(3',4',5'-trimethoxybenzyloxy)-Ginkgolide B], the 50% inhibitory concentration (IC50) (rabbit PRP, PAF 5×10^-9 M) was found to be 62.1 nM.
